Laboratory results as given in the CheMixHub drug solubility set.

Assay: xn = mol fraction of the nth substance listed, in the solute-free solvent

O=C(CC(=O)c1ccccc1)c1ccccc1 + CCO + O
solubility (g/100 g solution)
Details | 278.15 K | 283.15 K | 288.15 K | 293.15 K | 298.15 K | 303.15 K | 308.15 K | 313.15 K | 318.15 K
x2 = 0.2 | 0.0116 | 0.0406 | 0.0595 | 0.069 | 0.0786 | 0.0881 | 0.0946 | 0.177 | 0.129
x2 = 0.4 | 0.2 | 0.505 | 0.754 | 0.88 | 1.09 | 1.28 | 1.97 | 2.5 | 2.96
x2 = 0.6 | 0.577 | 0.706 | 0.904 | 1.13 | 1.47 | 2 | 2.12 | 2.61 | 3.89
x2 = 0.8 | 1.25 | 2.11 | 1.75 | 2.39 | 3.08 | 3.46 | 4.26 | 6.03 | 8.9

O=[N+]([O-])c1cc[nH]n1 + CCO + O
solubility (g/100 g solution)
Details | 283.15 K | 288.15 K | 293.15 K | 298.15 K | 303.15 K | 308.15 K | 313.15 K | 318.15 K | 323.15 K
x2 = 0.04165 | 0.265 | 0.347 | 0.44 | 0.528 | 0.709 | 0.854 | 1.16 | 1.49 | 1.89
x2 = 0.08908 | 0.319 | 0.385 | 0.478 | 0.581 | 0.718 | 0.87 | 1.15 | 1.44 | 1.83
x2 = 0.1436 | 0.409 | 0.521 | 0.689 | 0.942 | 1.16 | 1.49 | 1.89 | 2.41 | 3.08
x2 = 0.2068 | 0.482 | 0.6 | 0.75 | 0.956 | 1.18 | 1.48 | 1.87 | 2.34 | 2.97
x2 = 0.2812 | 0.53 | 0.639 | 0.777 | 0.962 | 1.16 | 1.46 | 1.8 | 2.24 | 2.82
x2 = 0.3698 | 1 | 1.2 | 1.45 | 1.71 | 2.08 | 2.5 | 3.05 | 3.86 | 4.83
x2 = 0.4772 | 1.69 | 1.98 | 2.32 | 2.72 | 3.26 | 3.87 | 4.68 | 5.83 | 7.1
x2 = 0.6101 | 2.68 | 3.06 | 3.52 | 4.09 | 4.83 | 5.64 | 6.66 | 8.11 | 9.68
x2 = 0.7788 | 3.98 | 4.51 | 5.09 | 5.8 | 6.58 | 7.79 | 9.11 | 10.7 | 12.4

O=c1ccc2ccccc2o1 + CCO + O
solubility (g/100 g solution)
Details | 278.15 K | 283.15 K | 288.15 K | 293.15 K | 298.15 K | 303.15 K | 308.15 K | 313.15 K | 318.15 K
x2 = 0.1429 | 0.201 | 0.363 | 0.646 | 1.12 | 1.9 | 3.1 | 4.94 | 7.56 | 12.1
x2 = 0.2857 | 0.809 | 1.49 | 2.82 | 4.84 | 8.59 | 14.1 | 23.6 | 36.2 | 52.4
x2 = 0.4286 | 2.35 | 4.02 | 6.77 | 10.7 | 17.5 | 25.7 | 37.2 | 51.5 | 65.7
x2 = 0.5714 | 3.44 | 5.45 | 9.19 | 13.8 | 21.1 | 30.1 | 41.7 | 56 | 70
x2 = 0.7143 | 3.65 | 5.85 | 9.47 | 14.4 | 21 | 30.5 | 40.9 | 54.9 | 68.7
x2 = 0.8571 | 3.18 | 5.14 | 8.31 | 12.7 | 19.3 | 28.4 | 38.2 | 51.8 | 66.4

Cc1nc(CCl)nc2ccccc12 + CCOC(C)=O + C1CCCCC1
solubility (g/100 g solution)
Details | x2 = 0.163 | x2 = 0.321 | x2 = 0.475 | x2 = 0.624 | x2 = 0.768 | x2 = 0.909
281.15 K | 0.0748 | 0.106 | 0.134 | 0.162 | 0.187 | 0.212
286.15 K | 0.102 | 0.139 | 0.176 | 0.21 | 0.244 | 0.276
291.15 K | 0.134 | 0.18 | 0.225 | 0.27 | 0.312 | 0.352
296.15 K | 0.172 | 0.229 | 0.285 | 0.339 | 0.392 | 0.439
301.15 K | 0.22 | 0.29 | 0.357 | 0.42 | 0.481 | 0.539
306.15 K | 0.276 | 0.357 | 0.437 | 0.511 | 0.582 | 0.65
311.15 K | 0.342 | 0.435 | 0.526 | 0.61 | 0.692 | 0.772
316.15 K | 0.418 | 0.523 | 0.623 | 0.718 | 0.81 | 0.898
321.15 K | 0.504 | 0.619 | 0.727 | 0.833 | 0.934 | 1.03
326.15 K | 0.599 | 0.721 | 0.84 | 0.951 | 1.06 | 1.16
331.15 K | 0.704 | 0.833 | 0.955 | 1.07 | 1.19 | 1.3
